The values that follow come from patent US9790252B2, “2-fluorinated riboses and arabinoses and methods of use and synthesis” (CORNELL UNIVERSITY, priority 2009, dated 2017).

In data set [1] the test system is HEK293 and Neuro2A cells. Put plainly: Immucillin-H effects on β-ara-Cl-NR toxicity (MTT). Type of data set: cell-based. To be noted: 10 μM ImmH with 5-100 μM β-ara-Cl-NR, 12 hours. As for the experimental part: We speculated that like NR, the chloro derivatives might degrade in cells by action of an enzyme that converts it to ribose-1-phosphate. This enzyme is called purine nucleoside phosphorylase (PNP). Immucillin-H (gift of Schramm lab) is a potent inhibitor of PNP. […] Assay: • 1. HEK293 and Neuro2A cells were seeded in 96-well plate at a density of 25,000 cells/well the day before the experiment starts; • 2. After the cells reach 50˜60% confluency, media was taken out, and 100 μL of fresh media was added to each well; • 3. β-ara-Cl-NR (black) and ImmH (bold) were plated according to the following Table 12: • 4. After 12 hours' incubation at 37° C., the media was taken out, 100 μL of fresh media was added to each well along with 20 μL of 5 mg/mL of MTT solution (in PBS); • 5. After 2 hours' incubation at 37° C., media was taken out and 100 μL of DMSO was added to each well, the plate was mixed on shaker for 5 mins; • 6. Absorbance was measured at 570 nm.

Data set [2] deals with Neuro2A cells. Put plainly: Toxicity to Neuro2A cells (MTT). Type of data set: cell-based. Conditions: for 100 μM absorbance / 100 μM relative viability / 500 μM absorbance / 500 μM relative viability: 12 hours; for 100 μM absorbance / 500 μM absorbance: MTT 1.5 hours, 570 nm; for 100 μM relative viability / 500 μM relative viability: control = 1; for EC50: 2′-deoxy-2′-fluoro-nucleosides and nucleotides. As to the method:
6. Neuro2A cells were seeded in 96-well plate at a density of 25,000 cells/well the day before the experiment starts;
7. After the cells reach 50˜60% confluency, media was taken out, and 100 μL of fresh media was added to each well;
8. […]
9. After 12 hours' incubation at 37° C., the media was taken out, 100 μL of fresh media was added to each well along with 20 μL of 5 mg/mL of MTT solution (in PBS);
10. After 1.5 hours' incubation at 37° C., media was taken out and 100 μL of DMSO was added to each well, the plate was mixed on shaker for 5 mins;
(§1) Absorbance was measured at 570 nm.
Assay for Determining Toxicity to HEK293 and Neuro2A Cells • 1. HEK293 and Neuro2A cells were seeded in 96-well plate at a density of 25,000 cells/well the day before the experiment starts; • 2. After the cells reach 50˜60% confluency, media was taken out, and 100 μL of fresh media was added to each well; • 3. […] After 12 hours' incubation at 37° C., the media was taken out, 100 μL of fresh media was added to each well along with 20 μL of 5 mg/mL of MTT solution (in PBS); • 5. After 2 hours' incubation at 37° C., media was taken out and 100 μL of DMSO was added to each well, the plate was mixed on shaker for 5 mins; • 6. Absorbance was measured at 570 nm.

The subject of data set [3] is HEK293 cells. Nature of the data set: Toxicity to HEK293 cells (MTT). Type of data set: cell-based. To be noted: for 100 μM absorbance / 100 μM relative viability: HEK293, 100 μM; for 100 μM absorbance / 100 μM relative viability / 500 μM absorbance / 500 μM relative viability: 12 hours; for 100 μM absorbance / 500 μM absorbance: MTT 1.5 hours, 570 nm; for 100 μM relative viability / 500 μM relative viability: control = 1; for 500 μM absorbance / 500 μM relative viability: HEK293, 500 μM; for EC50: 2′-deoxy-2′-fluoro-nucleosides and nucleotides. As for the experimental part: 1. HEK293 cells were seeded in 96-well plate at a density of 25,000 cells/well the day before the experiment starts;
2. After the cells reach 50˜60% confluency, media was taken out, and 100 μL of fresh media was added to each well;
3. F-derivatives were plated at 100 and 500 μM (in duplicates) concentrations;
4. After 12 hours' incubation at 37° C., the media was taken out, 100 μL of fresh media was added to each well along with 20 μL of 5 mg/mL of MTT solution (in PBS);
5. After 1.5 hours' incubation at 37° C., media was taken out and 100 μL of DMSO was added to each well, the plate was mixed on shaker for 5 mins;
as §1
Assay for Determining Toxicity to HEK293 and Neuro2A Cells • 1. HEK293 and Neuro2A cells were seeded in 96-well plate at a density of 25,000 cells/well the day before the experiment starts; • 2. After the cells reach 50˜60% confluency, media was taken out, and 100 μL of fresh media was added to each well; • 3. Cl-derivatives were plated at 100 and 500 μM (in duplicates) concentrations; • 4. After 12 hours' incubation at 37° C., the media was taken out, 100 μL of fresh media was added to each well along with 20 μL of 5 mg/mL of MTT solution (in PBS); • 5. After 2 hours' incubation at 37° C., media was taken out and 100 μL of DMSO was added to each well, the plate was mixed on shaker for 5 mins; • 6. Absorbance was measured at 570 nm.

In data set [4] the target is T1, cell developmental protein 38 (CD38) (Homo sapiens, UniProt P28907).
T1 sequence (P28907 1-300): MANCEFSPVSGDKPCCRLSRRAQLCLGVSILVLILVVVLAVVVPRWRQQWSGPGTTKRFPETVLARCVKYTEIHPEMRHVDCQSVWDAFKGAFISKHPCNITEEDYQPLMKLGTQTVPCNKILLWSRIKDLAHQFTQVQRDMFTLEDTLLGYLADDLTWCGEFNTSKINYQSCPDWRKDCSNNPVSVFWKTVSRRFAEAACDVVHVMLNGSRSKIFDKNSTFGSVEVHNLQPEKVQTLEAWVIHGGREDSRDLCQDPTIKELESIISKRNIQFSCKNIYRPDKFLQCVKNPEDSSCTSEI
Conditions: mechanism-based inhibitor; previous studies (Refs. 10, 12); read-out: apparent Ki; cited from earlier work.

In data set [5] the target is T2, SirT2 (Homo sapiens, UniProt Q8IXJ6).
T2 sequence (Q8IXJ6 1-389): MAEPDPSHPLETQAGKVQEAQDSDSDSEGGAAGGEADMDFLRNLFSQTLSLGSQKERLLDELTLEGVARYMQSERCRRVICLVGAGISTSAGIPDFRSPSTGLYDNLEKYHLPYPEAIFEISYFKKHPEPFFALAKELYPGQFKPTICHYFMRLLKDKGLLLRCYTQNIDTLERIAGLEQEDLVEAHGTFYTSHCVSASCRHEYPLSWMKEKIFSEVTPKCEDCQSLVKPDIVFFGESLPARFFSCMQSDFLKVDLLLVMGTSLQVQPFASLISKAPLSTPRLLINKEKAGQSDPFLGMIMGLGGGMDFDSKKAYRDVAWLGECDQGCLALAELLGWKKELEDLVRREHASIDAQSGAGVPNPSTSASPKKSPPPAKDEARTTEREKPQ
Put plainly: SirT2 activity assay (HPLC of 2′- and 3′-AADPR). Type of data set: biochemical. Conditions: 800 μM NAD+, 500 μM H3 peptide, pH 7.5. As for the experimental part:
Reactions containing 800 μM NAD^+, 500 μM H3 peptide, and 100 mM phosphate buffer at pH 7.5, with varying concentrations of 2′-deoxy-2′-fluoro-nucleosides or nucleotides were initiated by addition of SirT2 enzyme to a concentration of 16.6 μM. Reactions were incubated for 45 mins at 37° C. and quenched by addition of trifluoroacetic acid to pH 2. After centrifugation to remove precipitates, reactions were injected on HPLC for activity analysis. Production of 2′- and 3′-AADPR were analyzed at 260 nm.
SirT2 Activity Assay: Reactions containing 800 μM NAD^+, 500 μM H3 peptide, and 100 mM phosphate buffer at pH 7.5, with varying concentrations of 2′-deoxy-2′-chloro-nucleosides were initiated by addition of SirT2 enzyme to a concentration of 16.6 μM. Reactions were incubated for 45 mins at 37° C. and quenched by addition of trifluoroacetic acid to pH 2. After centrifugation to remove precipitates, reactions were injected on HPLC for activity analysis. Production of 2′- and 3′-AADPR were analyzed at 260 nm.

Data set [6] deals with T3, SirT1 (Homo sapiens, UniProt Q96EB6).
T3 sequence (Q96EB6 1-747): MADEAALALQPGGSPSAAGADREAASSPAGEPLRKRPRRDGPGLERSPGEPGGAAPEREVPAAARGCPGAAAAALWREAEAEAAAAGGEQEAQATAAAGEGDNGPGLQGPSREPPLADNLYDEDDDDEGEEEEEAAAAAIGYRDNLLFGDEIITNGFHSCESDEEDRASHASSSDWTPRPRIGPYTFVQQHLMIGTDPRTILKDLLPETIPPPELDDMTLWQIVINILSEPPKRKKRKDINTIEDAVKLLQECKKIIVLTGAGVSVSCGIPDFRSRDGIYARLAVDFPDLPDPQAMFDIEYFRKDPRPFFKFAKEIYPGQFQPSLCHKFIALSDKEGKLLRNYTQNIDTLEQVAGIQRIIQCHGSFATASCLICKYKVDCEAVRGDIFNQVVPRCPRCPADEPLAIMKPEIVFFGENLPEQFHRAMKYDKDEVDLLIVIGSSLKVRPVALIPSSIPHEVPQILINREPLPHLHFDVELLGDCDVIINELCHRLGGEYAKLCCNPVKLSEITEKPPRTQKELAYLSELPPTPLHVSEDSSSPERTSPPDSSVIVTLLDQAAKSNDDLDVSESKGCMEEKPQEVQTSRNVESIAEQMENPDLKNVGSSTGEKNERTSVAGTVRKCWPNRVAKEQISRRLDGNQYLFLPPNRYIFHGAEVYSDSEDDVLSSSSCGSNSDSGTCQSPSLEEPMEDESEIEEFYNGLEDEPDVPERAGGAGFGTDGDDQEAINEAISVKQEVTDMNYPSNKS
Put plainly: SirT1 activity assay (HPLC of 2′- and 3′-AADPR). Type of data set: biochemical. To be noted: 200 μM NAD+, 100 μM JB12 peptide, pH 7.5, 30 mins at 37° C. As to the method: Reactions containing 200 μM NAD^+, 100 μM JB12 peptide, and 100 mM phosphate buffer at pH 7.5, with varying concentrations of 2′-deoxy-2′-fluoro-nucleosides or nucleotides were initiated by addition of SirT1 enzyme to a concentration of 12.9 μM. Reactions were incubated for 30 mins at 37° C. and quenched by addition of trifluoroacetic acid to pH 2. After centrifugation to remove precipitates, reactions were injected on HPLC for activity analysis. Production of 2′- and 3′-AADPR were analyzed at 260 nm.
SirT1 Activity Assay: Reactions containing 200 μM NAD^+, 100 μM JB12 peptide, and 100 mM phosphate buffer at pH 7.5, with varying concentrations of 2′-deoxy-2′-chloro-nucleosides were initiated by addition of SirT1 enzyme to a concentration of 12.9 μM. Reactions were incubated for 30 mins at 37° C. and quenched by addition of trifluoroacetic acid to pH 2. After centrifugation to remove precipitates, reactions were injected on HPLC for activity analysis. Production of 2′- and 3′-AADPR were analyzed at 260 nm.

Take `O=c1[nH]cnc2c([C@@H]3N[C@H](CO)[C@@H](O)[C@H]3O)c[nH]c12` [Immucillin-H]: the “effect of PNP inhibition on β-ara-Cl-NR toxicity” value in data set [1] was “largely incapable of preventing this toxicity”.
What is called EC50 is the concentration that produces a half-maximal response. Regarding `NC(=O)c1ccc[n+]([C@@H]2O[C@H](COP(=O)([O-])O)C(O)C2F)c1` (stereo partly drawn) [ara-F-NMN, 2′-deoxy-2′-fluoro-arabino-nicotinamide mononucleotide], in data set [2], the “100 μM absorbance” value amounted to 2.126, the “100 μM relative viability” value turned out to be 0.874, the “500 μM absorbance” value came to 0.0143 and the “500 μM relative viability” value amounted to 0.006. The compound further showed an EC50 in data set [2] of 164 µM. In data set [3], the “100 μM absorbance” value was 1.267, the “100 μM relative viability” value is listed as 0.5574, the “500 μM absorbance” value amounted to 0 and the “500 μM relative viability” value is on record as 0. Besides, the half-maximal effective concentration (EC50) in data set [3] (HEK293) amounted to 88 µM. The Ki in data set [4] was 0.061 µM. Besides, the “SirT2 inhibition (in words)” value in data set [5] is recorded as “no inhibition”.
With `NC(=O)c1ccc[n+]([C@@H]2O[C@H](COP(=O)([O-])OP(=O)(O)OC[C@H]3O[C@@H](n4cnc5c(N)ncnc54)[C@H](O)[C@@H]3O)[C@@H](O)C2(F)F)c1` [gem-diF-NAD, 2′-deoxy-2′,2′-difluoro-NAD^+], in data set [6], the Ki stood at 60 µM. For the same compound, in data set [2], the “100 μM absorbance” value came to 1.5765, the “100 μM relative viability” value is recorded as 0.648, the “500 μM absorbance” value amounted to 1.1916 and the “500 μM relative viability” value is 0.49. In addition, the EC50 in data set [2] (Mus musculus, N2a) turned out to be 400 µM. Moreover, in data set [3], the “100 μM absorbance” value worked out at 1.797, the “100 μM relative viability” value amounted to 0.7905, the “500 μM absorbance” value was determined as 1.556 and the “500 μM relative viability” value worked out at 0.6844. The 50% effective concentration (EC50) in data set [3] (Homo sapiens, HEK293, HEK293) is 1130 µM.
